Assay [1] in a line: Inhibition of alpha-glucosidase (unknown origin). Also on record: species or system Homo sapiens.
Another assay deals with HEK293. The assay is described as follows: Cytotoxicity against HEK293 cells assessed as reduction in cell viability. Format: cell-based. The following applies: Homo sapiens.

Experimental findings from ChEMBL document CHEMBL4725326, “Synthesis, α-glucosidase inhibition, and molecular docking studies of novel N-substituted hydrazide derivatives of atranorin as antidiabetic agents” (Bioorg Med Chem Lett, 2020) are described below.

Molecules are shown by their SMILES.

`COC(=O)c1c(C)cc(OC(=O)c2c(C)cc(O)c(/C=N/NC(=O)COc3ccc(C)cc3)c2O)c(C)c1O`: the figures for the IC50 (in assay [1]; in the assay on HEK293) were 54.7 µM and above 100 µM, respectively.

Regarding `COC(=O)c1c(C)cc(OC(=O)c2c(C)cc(O)c(/C=N/NC(=O)c3cc(I)ccc3O)c2O)c(C)c1O`, the IC50 (commonly the concentration at which inhibition is half-maximal) in assay [1] turned out to be 41.2 µM; in the assay with HEK293, 94.1 µM.

Regarding `COC(=O)c1c(C)cc(OC(=O)c2c(C)cc(O)c(/C=N/NC(=O)COc3cc4ccccc4o3)c2O)c(C)c1O`, the IC50 worked out at 39.7 µM in assay [1] and 84.4 µM in the assay on HEK293.

In assay [1], `COC(=O)c1c(C)cc(OC(=O)c2c(C)cc(O)c(C=O)c2O)c(C)c1O` [ATRANORIN] yielded an IC50 above 100 µM.

On to `COC(=O)c1c(C)cc(OC(=O)c2c(C)cc(O)c(/C=N/NC(=O)COc3ccccc3C)c2O)c(C)c1O`, for which the IC50 in assay [1] is 53.3 µM; in the assay on HEK293, above 100 µM.

Turning to `COC(=O)c1c(C)cc(OC(=O)c2c(C)cc(O)c(/C=N/NC(=O)COc3ccc(Br)cc3)c2O)c(C)c1O`, the values for the IC50 (in assay [1]; in the assay with HEK293) were 17.3 µM and above 100 µM, respectively.

As to `COC(=O)c1c(C)cc(OC(=O)c2c(C)cc(O)c(/C=N/NC(=O)CNc3ccc(C)cc3)c2O)c(C)c1O`, the figures for the IC50 (in assay [1]; in the assay with HEK293) were 31.5 µM and above 100 µM, respectively.

As for `COC(=O)c1c(C)cc(OC(=O)c2c(C)cc(O)c(/C=N/NC(=O)COc3cccc(C)c3)c2O)c(C)c1O`, the results for the IC50 (in assay [1]; with HEK293) were 40.6 µM and above 100 µM, respectively.

For the molecule `COC(=O)c1c(C)cc(OC(=O)c2c(C)cc(O)c(/C=N/NC(=O)Cc3ccccc3)c2O)c(C)c1O`, the figures for the IC50 (in assay [1]; in the assay with HEK293) were 6.67 µM and above 100 µM, respectively.

Consider `COc1cccc2c1C(=O)c1c(O)c3c(c(O)c1C2=O)C[C@@](O)(C(=O)CO)C[C@@H]3O[C@H]1C[C@H](N)[C@H](O)[C@H](C)O1` [DOXORUBICIN], for which, in the assay with HEK293, the IC50 worked out at 7.92 µM.

With `COC(=O)c1c(C)cc(OC(=O)c2c(C)cc(O)c(/C=N/NC(=O)c3cc(Cl)ccc3O)c2O)c(C)c1O`, the IC50 stood at 9.91 µM in assay [1] and 63.2 µM in the assay with HEK293.

Consider `COC(=O)c1c(C)cc(OC(=O)c2c(C)cc(O)c(/C=N/NC(=O)CSc3nc4ccccc4s3)c2O)c(C)c1O`, for which the IC50 in assay [1] stood at 9.12 µM; in the assay with HEK293, 70.1 µM.

For the molecule `COC(=O)c1c(C)cc(OC(=O)c2c(C)cc(O)c(/C=N/NC(=O)COc3cc(C)ccc3C(C)C)c2O)c(C)c1O`, the IC50 in assay [1] is 28.1 µM; in the assay with HEK293, above 100 µM.

Take `COC(=O)c1c(C)cc(OC(=O)c2c(C)cc(O)c(/C=N/NC(=O)COc3ccc4ccccc4c3)c2O)c(C)c1O`: the IC50 in assay [1] amounted to 18.9 µM; in the assay on HEK293, 52.7 µM.

Regarding `C[C@H]1O[C@H](O[C@H]2[C@H](O)[C@@H](O)[C@@H](O[C@H]3[C@H](O)[C@@H](O)C(O)O[C@@H]3CO)O[C@@H]2CO)[C@H](O)[C@@H](O)[C@@H]1N[C@H]1C=C(CO)[C@@H](O)[C@H](O)[C@H]1O` (some centres not stated) [ACARBOSE], the IC50 in assay [1] worked out at 93.6 µM.
